These are literature values, as cited in patent US20050148552A1, “Methods of treating eczema” (priority 2003, published 2005).

Counter-ions that a name gives are not always drawn.

The conditions of data set [1]: single dose of two 100 mg minocycline HCl tablets or capsules, adult humans.
For data set [2] the following is noted: 250 mg every six hours over a twenty-four hour period.

Turning to `CN(C)c1ccc(O)c2c1C[C@H]1C[C@H]3[C@H](N(C)C)C(O)=C(C(N)=O)C(=O)[C@@]3(O)C(O)=C1C2=O` [minocycline HCl], the “average minocycline serum level” value in data set [1] was 2.24 µg/mL.

Turning to `CN(C)[C@@H]1C(O)=C(C(N)=O)C(=O)[C@@]2(O)C(O)=C3C(=O)c4c(O)cccc4[C@@](C)(O)[C@H]3C[C@@H]12` [tetracycline HCl], in data set [2], the peak serum level result is recorded as “approximately 3 μg/ml”.
